In patent US7300784B2 (priority 2001, dated 2007):
Several values for one entry are separate records, joined by “and”; a condition that tells them apart may be missing. Equal entries are not always repeated. Where two headings read alike, the source gives them in different places.

What was measured:
[1] = test system: nitrile hydratase of Rhodococcus sp. Cr4; assay type: biochemical
[2] = test system: nitrile hydratase of Rhodococcus sp. Cr4; test: Substrate specificity of the purified nitrile hydratase (amide formation by HPLC); assay type: biochemical; details: for substrate suitability: purified nitrile hydratase
Description: (§1) The standard assay method for the nitrile hydratase activity used in the following Examples as follows. The enzyme reaction is initiated by adding 3-cyanopyridine or 2-hydroxy-4-methylthiobutyronitrile (HMBN) as the substrate compound. In the case of 3-cyanopyridine, incubation was continued at 20° C. for 10 minute, in the case of HMBN, at 20° C. for 15 minutes. When 3-cyanopyridine was used in the reaction, 0.1 ml of 2 N hydrochloric acid was added to the reaction and the mixture was shaken vigorously to stop the reaction; when HMBN was used in the reaction, 0.1 ml of the reaction solution was added to 0.9 ml of 0.1% (v/v) phosphoric acid and the mixture was shaken vigorously to stop the reaction. The reaction solution was analyzed by HPLC.
• 0.3 M 3-cyanopyridine was added to initiate the reaction. • The mixture was incubated with shaking at 20° C. for […]. • 2 N HCl was added to stop the reaction. • Centrifugation. • HPLC analysis.
The substrate specificity of the enzymewas examined. With the standard composition reaction solution shown in table 2, 2.92 U enzyme was incubated with various types of substrates, instead of 3-cyanopyridine; the generation of amides in the reaction solution was analyzed by HPLC. Thus, the relative activity was determined. The types of substrate compounds added, final concentrations thereof, reaction times, and HPLC conditions used for the analyses of products corresponding to the respective substrates are shown in Table 6. The HPLC conditions (1)-(9) are indicated next to Table 6.
The conditions for HPLC were as follows: • (1) Column: Waters Spherisorb 5 μODS2 (4.6×150 mm); • Solvent: 10 mM KH2PO4(pH 2.8)/acetonitrile (v/v)=9:1; • Flow rate: 1.0 ml/min; • Detection: 230 nm; • Injection volume: 5 μl. • (2) Column: Waters Spherisorb 5 μODS2 (4.6×150 mm); • Solvent: 10 mM KH2PO4(pH 2.8)/acetonitrile (v/v)=9:1; • Flow rate: 1.0 ml/min; • Detection: 230 nm; • Injection volume:5 μl. • (3) Column: Waters Spherisorb 5 μODS2 (4.6×150 mm); • Solvent: 5 mM KH2PO4 (pH 2.8)/acetonitrile (v/v)=12:7; • Flow rate: 1.0 ml/min; • Detection: 230 nm; • Injection volume: 5 μl. • (4) Column: Waters Spherisorb 5 μODS2 (4.6×150 mm); • Solvent: 10 mM KH2PO4(pH 2.5)/acetonitrile (v/v)=99:1; • Flow rate: 1.0 ml/min; • Detection: 210 nm; • Injection volume: 5 μl. • (5) Column: Waters Spherisorb 5 μODS2 (4.6×150 mm); • Solvent: 10 mM KH2PO4(pH 2.5)/acetonitrile (v/v)=99:1; • Flow rate: 1.0 ml/min; • Detection: 230 nm; • Injection volume: 5 μl. • (6) Column: Spherisorb S5ODS2 (4.6×150 mm) • Solvent: 0.1% (v/v) phosphate/acetonitrile (v/v)=99:1; • Flow rate: 1.0 ml/min; • Detection: 210 nm; • Injection volume: 5 μl. • (7) Column: Spherisorb S5ODS2 (4.6×150 mm); • Solvent: 0.1% (v/v) phosphate/acetonitrile (v/v)=9:1; • Flow rate: 1.0 ml/min; • Detection: 210 nm; • Injection volume: 5 μl; • Temperature: 40° C. • (8) Column: Spherisorb S5ODS2 (4.6×150 mm); • Solvent: 0.1%(v/v) phosphate/acetonitrile (v/v)=9:1; • Flow rate: 1.0 ml/min; • Detection: 230 nm; • Injection volume: 5 μl • Temperature: 40° C. • (9) Column: Spherisorb S5ODS2 (4.6×150 mm); • Solvent: 5 mM KH2PO4 (pH 2.8)/acetonitrile (v/v)=12:7; • Flow rate: 1.0 ml/min; • Detection: 210 nm; • Injection volume: 5 μl; • Temperature: 40° C. 13. The Effect of Inhibitors on the Enzymatic Activity

[3] = test system: nitrile hydratase of Rhodococcus sp. Cr4; test: Effect of coexisting Ni++ ion with various substrates; assay type: biochemical; details: for effect of Ni++ on activity with this substrate: Ni++ added
Description: Then, with the standard composition of reaction solution shown in table 2, various types of substrates, instead of 3-cyanopyridine, were added to the solutions containing 2.92 U enzyme to study their effects on the activity. […] The addition of Ni^++ ion was assumed to specifically enhance the reaction efficiency when the substrate was a α-hydroxynitrile (Table 11).
The incubation was prolonged for 10 minutes at 20° C. using 2.92 U enzyme. 17. Determination of N-Terminal Amino Acid Sequence

[4] = test system: nitrile hydratase of Rhodococcus sp. Cr4; assay type: biochemical; details: for effect on enzyme activity (words): inhibitors
Description: as §1
• 10% (v/v) HMBN was added to initiate the reaction. • The mixture was incubated with shaking at 20° C. for 10 minutes. • 0.1% (v/v) H3PO4 was added to stop the reaction. • Centrifugation. • HPLC analysis.
Inhibitors to the enzyme were studied. With the standard composition of reaction solution shown in Table 1, various inhibitors were added at a final concentration 1.0 mM or 0.1 mM to the solutions containing 2.92 U enzyme; after the mixtures were incubated at 20° C. for 10 minutes, the reaction was carried out for 15 minutes.

[5] = test system: Rhodococcus sp. Cr4; assay type: cell-based
[6] = test system: Rhodococcus rhodochrous ATCC 332878; assay type: cell-based
[7] = test system: nitrile hydratase of Rhodococcus sp. Cr4; test: Effect of substrate concentration (Km value, Lineweaver-Burk plot); assay type: biochemical; details: 20° C., 15 minutes
Description: The Km value for HMBN was determined from the S-V plot (FIG. 4) and Lineweaver-Burk plot (FIG. 5). 0.0585 U of the enzyme was added to solutions containing HMBN at various concentrations and the reactions were incubated at 20° C. for 15 minutes. The reactions were analyzed by HPLC.
In addition, the Km value for 3-cyanopyridine was determined from the S-V plot (FIG. 6) and Lineweaver-Burk plot (FIG. 7). Similarly, 0.0265 U of the enzyme was added to solutions containing 3-cyanopyridine at various concentrations and the reactions were incubated at 20° C. for 15 minutes. The reactions were analyzed by HPLC.

[8] = compound used as substrate, activity for 3-cyanopyridine = 100%, 20° C., 2.92 U enzyme
[9] = compound 1.0 mM, Free = 100, HMBN substrate, 20° C.
[10] = compound used as substrate, methanol added (final conc. 20% v/v), 20° C., 2.92 U enzyme

O=S(=O)([O-])[O-].[Fe+2] [FeSO4]
Relative activity (%) [1]: 78.9%

CC=CC#N [Crotononitrile]
Relative activity (%) [2, 8]: 87.4%
activity, Free [3]: 100
activity, NiCl2 (1 mM) [3]: 103

N#CC(O)c1ccccc1 (centres unmarked) [Manderonitlile]
activity, Free [3]: 100
activity, NiCl2 (1 mM) [3]: 201
effect of Ni++ on activity with this substrate [3]: enhanced twice

O=[N+]([O-])[O-].[Ag+] [AgNO3]
Relative activity (%) [1]: 7.85%
effect on enzyme activity (words) [1]: markedly inhibited

N#Cc1ccc(Cl)cc1 [p-Chlorobenzonitrile]
Relative activity (%) [2]: 28.4%

N#Cc1ccncc1 [4-Cyanopyridine]
Relative activity (%) [2, 8]: 127%
activity, Free [3]: 100
activity, NiCl2 (1 mM) [3]: 99

NC(N)=O [Urea]
Relative activity (%) [4, 9]: 95.7%

[Cl][Fe]([Cl])[Cl] [FeCl3]
Relative activity (%) [1]: 100%

N#CCN [Aminoacetonitlile]
activity, Free [3]: 0
activity, NiCl2 (1 mM) [3]: 0

N#CCO [Hydroxyacetonitlile]
activity, Free [3]: 0
activity, NiCl2 (1 mM) [3]: 0

N#Cc1ccccc1 [Benzonitrile]
Relative activity (%) [2]: 138%

N[C@@H]1CONC1=O [D-Cycloserine]
Relative activity (%) [4, 9]: 94.8%

O=S(=O)([O-])[O-].[Cu+2] [CuSO4]
Relative activity (%) [1]: 109%

O=S(=O)([O-])[O-].[Zn+2] [ZnSO4]
Relative activity (%) [1]: 84.1%

NNc1ccccc1 [Phenylhydrazine]
Relative activity (%) [4, 9]: 8.19%
effect on enzyme activity (words) ([4]; listed as phenyl hydrazine): markedly inhibited
effect on enzyme activity (words) ([4]; listed as phenylhydrazine): inhibited

C=CC#N [Acrylonitrile]
Relative activity (%) [2, 8]: 114%

C/C(N)=C/C#N [β-aminochlotononitlile]
activity, Free [3]: 0
activity, NiCl2 (1 mM) [3]: 0

CCCC#N [n-Butyronitrile]
Relative activity (%) [2, 10]: 379%
substrate suitability [2]: suitable substrates
activity, Free [3]: 100
activity, NiCl2 (1 mM) [3]: 94

N#Cc1ccccn1 [2-Cyanopyridine]
Relative activity (%) [2, 8]: 223%
substrate suitability [2]: suitable substrates
activity, Free [3]: 100
activity, NiCl2 (1 mM) [3]: 97

N#CCCN [3-aminopropyonitlile]
activity, Free [3]: 100
activity, NiCl2 (1 mM) [3]: 97

[Cl][Ni][Cl] [NiCl2]
Relative activity (%) [1]: 196% and 185% and 171% and 197% and 195% and 184%
effect on enzyme activity (words) [1]: enhanced
enhancement of the enzymatic activity [1]: enhanced twice
Relative activity (%) [5]: 186%
effect on nitrile hydratase activity in resting cell reaction [5]: enhanced
Relative activity (%) [6]: 193%

CCCCCC#N [n-Capronitrile]
Relative activity (%) [2, 10]: 18.1%

O=S(=O)(O)c1cc(O)c(O)c(S(=O)(=O)O)c1 [Tiron]
Relative activity (%) [4, 9]: 132%

O[C@H](CS)[C@H](O)CS (racemic) [Dithiothreitol]
Relative activity (%) [4, 9]: 93.4%

N#CCc1c[nH]c2ccccc12 [3-Indolylacetonitrile]
Relative activity (%) [2, 10]: 2.33%

N#CCC(N)=O [2-Cyanoacetamide]
Relative activity (%) [2, 8]: 46.3%

[N-]=[N+]=[N-].[Na+] [NaN3]
Relative activity (%) [4]: 98.5%

[Cl][Hg][Cl] [HgCl2]
Relative activity (%) ([1]; metal 1.0 mM, Free = 100, incubated 20° C. 10 minutes): 7.48%
effect on enzyme activity (words) ([1]; metal ions): inhibited
effect on enzyme activity (words) ([1]; metal ions, listed as Hg^++): markedly inhibited

O=C(O)c1cc[c]([Hg][Cl])cc1 [p-Chloromercuribenzoate]
Relative activity (%) [4, 9]: 97.7%

N#CCCO [Etylene cyanohydrin]
activity, Free [3]: 100
activity, NiCl2 (1 mM) [3]: 91

NO [Hydroxylamine]
Relative activity (%) [4, 9]: 62.1%
effect on enzyme activity (words) [4]: markedly inhibited

N#Cc1ccccc1Cl [o-Chlorobenzonitrile]
Relative activity (%) [2, 10]: 58.6%

CCN1C(=O)C=CC1=O [N-Ethylmaleimide]
Relative activity (%) [4, 9]: 101%

CCCCC#N [n-Valeronitrile]
Relative activity (%) [2, 10]: 118%

CC(C)CC#N [Isovaleronitrile]
Relative activity (%) [2, 10]: 2.71%

NCCS [Cysteamine]
Relative activity (%) [4]: 106%

N#Cc1cccc(Cl)c1 [m-Chlorobenzonitrile]
Relative activity (%) [2]: 7.18%

CCC#N [Propionitrile]
Relative activity (%) [2, 8]: 173%

[Ca+2].[Cl-].[Cl-] [CaCl2]
Relative activity (%) [1]: 96.4%

N#Cc1cccnc1 [3-Cyanopyridine]
Relative activity (%) [2, 8]: 100%
Relative activity (%) [2, 10]: 76.5%
activity, Free [3]: 100
activity, NiCl2 (1 mM) [3]: 99
Km [7]: 1380 µM

[Cl][Mn][Cl] [MnCl2]
Relative activity (%) [1]: 96.7%

O=C(O)CI [Iodoacetate]
Relative activity (%) [4]: 97.0%

CC#N [Acetonitrile]
Relative activity (%) [2]: 14.6%

C=C(C)C#N [Methacrylonitrile]
Relative activity (%) [2, 8]: 93.7%

N#CCC#N [Malononitrile]
substrate suitability [2]: suitable substrates

N#Cc1cnccn1 [Cyanopyrazine]
Relative activity (%) [2, 8]: 114%

CSCCC(O)C#N (centres unmarked) [HMBN, 2-hydroxy-4-methylthiobutyronitrile]
Relative activity (%) [2, 8]: 154%
activity, Free [3]: 100
activity, NiCl2 (1 mM) [3]: 196
effect of Ni++ on activity with this substrate [3]: enhanced twice
Km [7]: 1430 µM

O=C(O)c1cc(SSc2ccc([N+](=O)[O-])c(C(=O)O)c2)ccc1[N+](=O)[O-] [5-5′-Dithiobis]
Relative activity (%) [4]: 99.1%

O=C(O)CN(CCN(CC(=O)O)CC(=O)O)CC(=O)O [EDTA]
Relative activity (%) [4]: 101%

CC(C)C#N [Isobutyronitrile]
Relative activity (%) [2, 10]: 40.9%
